Experimental data taken from EP2264010A1, “Hetarylamidines” (Bayer CropScience AG, priority 2009, dated 2010).

Columns and labels:
SETVI = test: Herbicidal activity, test type PE; format: in vivo; details: TEST-TYP PE, read-out: herbizide Wirkung SETVI
AMARE [1] = test: Herbicidal activity, test type PO; format: in vivo; details: TEST-TYP PO, 80 G/HA
MATIN = test: Herbicidal activity, test type PE; format: in vivo; details: TEST-TYP PE, read-out: herbizide Wirkung MATIN
Tetranychus urticae = test: Tetranychus test, OP-resistant (TETRUR spray treatment); format: in vivo; details: topical, bean leaf discs (Phaseolus vulgaris), read-out: Wirkung
From the text: Zur Herstellung einer zweckmäßigen Wirkstoffzubereitung vermischt man 1 Gewichtsteil Wirkstoff mit den angegebenen Mengen Lösungsmittel und Emulgator und verdünnt das Konzentrat mit emulgatorhaltigem Wasser auf die gewünschte Konzentration.
Bohnenblattscheiben (Phaseolus vulgaris), die von allen Stadien der Gemeinen Spinnmilbe (Tetranychus urticae) befallen sind, werden mit einer Wirkstoffzubereitung der gewünschten Konzentration gespritzt.
Nach der gewünschten Zeit wird die Wirkung in % bestimmt. Dabei bedeutet 100 %, dass alle Spinnmilben abgetötet wurden; 0 % bedeutet, dass keine Spinnmilben abgetötet wurden.

VIOTR [2] = test: Herbicidal activity, test type PE; format: in vivo; details: TEST-TYP PE, read-out: herbizide Wirkung VIOTR
STEME = test: Herbicidal activity, test type PE; format: in vivo; details: TEST-TYP PE, read-out: herbizide Wirkung STEME
VERPE [3] = test: Herbicidal activity, test type PO; format: in vivo; details: TEST-TYP PO, 80 G/HA
VIOTR [4] = test: Herbicidal activity, test type PO; format: in vivo; details: TEST-TYP PO, 80 G/HA
VERPE [5] = test: Herbicidal activity, test type PE; format: in vivo; details: TEST-TYP PE, read-out: herbizide Wirkung VERPE
ALOMY = test: Herbicidal activity, test type PE; format: in vivo; details: TEST-TYP PE, 320 G/HA
AMARE [6] = test: Herbicidal activity, test type PE; format: in vivo; details: Amaranthus retroflexus, TEST-TYP PE, read-out: herbizide Wirkung AMARE
CYPES = test: Herbicidal activity, test type PE; format: in vivo; details: TEST-TYP PE, 320 G/HA
LOLMU = test: Herbicidal activity, test type PE; format: in vivo; details: TEST-TYP PE, read-out: herbizide Wirkung LOLMU
[7] = logP by HPLC on reversed-phase columns (C 18), EEC Directive 79/831 Annex V.A8; format: physicochemical; details: c18 reversed-phase hplc, reversed-phase (C 18), read-out: log p
From the text: Die Messung der logP Werte erfolgte gemäß EEC Directive 79/831 Annex V.A8 durch HPLC (High Performance Liquid Chromatography) an reversed-phase Säulen (C 18), mit der nachfolgenden Methode: […]

CCN(C)C=Nc1ncc(Cl)cc1-c1cccc(C(F)(F)F)c1 [compound 33]
pest or weed control at 320 g/ha (SETVI): 80%
herbizide Wirkung AMARE (AMARE [1]): 80
pest or weed control at 320 g/ha (MATIN): 80%
mortality at 500 g/ha, 500 g/ha (Tetranychus urticae): > 80%
pest or weed control at 320 g/ha (VIOTR [2]): 100%
pest or weed control at 320 g/ha (STEME): 80%
herbizide Wirkung VERPE (VERPE [3]): 80
herbizide Wirkung VIOTR (VIOTR [4]): 90
pest or weed control at 320 g/ha (VERPE [5]): 100%
herbizide Wirkung ALOMY (ALOMY): 80
pest or weed control at 320 g/ha (AMARE [6]): 100%

FC(F)(F)c1cccc(-c2cc(Cl)cnc2N=CN2CCCC2)c1 [compound 38]
pest or weed control at 320 g/ha (SETVI): 90%
herbizide Wirkung CYPES (CYPES): 100
pest or weed control at 320 g/ha (AMARE [6]): 80%

CCN(C=Nc1ncc(Cl)cc1-c1cccc(C(F)(F)F)c1)CC [compound 36]
pest or weed control at 320 g/ha (SETVI): 90%
pest or weed control at 320 g/ha (VIOTR [2]): 100%
pest or weed control at 320 g/ha (LOLMU): 80%
herbizide Wirkung CYPES (CYPES): 100
pest or weed control at 320 g/ha (VERPE [5]): 90%

CCN(C)C=Nc1ncc(Cl)cc1-c1ccc(C(F)(F)F)c(Cl)c1 [compound 24]
mortality at 500 g/ha, 500 g/ha (Tetranychus urticae): > 80%
chromatographic logP [7]: 2.88
